Reference: ChEMBL document CHEMBL1156427, “Hepatitis C virus NS5A is a direct substrate of casein kinase I-alpha, a cellular kinase identified by inhibitor affinity chromatography using specific NS5A hyperphosphorylation inhibitors” (J Biol Chem, 2007)

What was measured:
[1] = target: Ribosomal protein S6 kinase alpha-3 (Homo sapiens, UniProt P51812); assay: Inhibition of human RSK2
[2] = target: MAP kinase p38 (Homo sapiens, UniProt O15264+Q15759+Q16539+P53778); assay: Inhibition of human p38 MAPK; format: protein assay
[3] = target: Casein kinase I isoform delta (Homo sapiens, UniProt P48730); assay: Inhibition of human CKIdelta
Chain of Casein kinase I isoform delta (P48730 whole entry, canonical isoform): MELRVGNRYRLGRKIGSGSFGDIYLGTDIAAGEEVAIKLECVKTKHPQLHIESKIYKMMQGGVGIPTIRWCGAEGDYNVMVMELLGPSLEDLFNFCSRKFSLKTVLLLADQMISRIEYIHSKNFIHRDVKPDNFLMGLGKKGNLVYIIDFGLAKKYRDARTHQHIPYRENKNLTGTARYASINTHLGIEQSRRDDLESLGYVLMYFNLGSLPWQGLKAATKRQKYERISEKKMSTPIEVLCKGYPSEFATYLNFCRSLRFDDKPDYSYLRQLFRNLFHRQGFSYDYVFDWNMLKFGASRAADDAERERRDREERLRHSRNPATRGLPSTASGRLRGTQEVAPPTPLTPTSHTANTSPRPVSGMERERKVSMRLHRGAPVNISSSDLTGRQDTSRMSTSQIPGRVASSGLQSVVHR

[4] = target: Casein kinase I isoform alpha (Homo sapiens, UniProt P48729); assay: Inhibition of human CKIalpha
Chain of Casein kinase I isoform alpha (P48729 whole entry, canonical isoform): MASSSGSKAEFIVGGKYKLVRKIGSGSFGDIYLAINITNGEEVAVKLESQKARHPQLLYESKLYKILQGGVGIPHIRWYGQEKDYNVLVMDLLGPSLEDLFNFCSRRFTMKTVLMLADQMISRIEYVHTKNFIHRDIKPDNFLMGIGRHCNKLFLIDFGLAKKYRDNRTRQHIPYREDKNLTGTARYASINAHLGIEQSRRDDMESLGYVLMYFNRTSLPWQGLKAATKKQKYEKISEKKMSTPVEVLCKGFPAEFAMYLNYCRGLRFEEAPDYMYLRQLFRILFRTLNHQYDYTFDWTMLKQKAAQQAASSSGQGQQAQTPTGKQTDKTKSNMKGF

[5] = Inhibition of human PKA
[6] = target: Mitogen-activated protein kinase 8 (Homo sapiens, UniProt P45983); assay: Inhibition of human JNK1
Chain of Mitogen-activated protein kinase 8 (P45983 whole entry): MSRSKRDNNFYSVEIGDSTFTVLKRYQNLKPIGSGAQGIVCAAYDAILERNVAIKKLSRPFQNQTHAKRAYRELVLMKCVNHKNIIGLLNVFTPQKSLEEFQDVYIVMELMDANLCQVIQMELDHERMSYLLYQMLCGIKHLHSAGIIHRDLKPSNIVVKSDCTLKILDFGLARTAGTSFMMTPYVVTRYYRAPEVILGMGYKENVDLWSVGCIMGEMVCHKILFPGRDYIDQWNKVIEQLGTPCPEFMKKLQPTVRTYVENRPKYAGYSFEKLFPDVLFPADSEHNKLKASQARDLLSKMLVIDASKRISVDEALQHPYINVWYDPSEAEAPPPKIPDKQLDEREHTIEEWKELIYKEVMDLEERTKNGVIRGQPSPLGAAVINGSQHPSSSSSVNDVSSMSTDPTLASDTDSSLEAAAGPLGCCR

[7] = target: Mitogen-activated protein kinase 9 (Homo sapiens, UniProt P45984); assay: Inhibition of human JNK2
Chain of Mitogen-activated protein kinase 9 (P45984 whole entry): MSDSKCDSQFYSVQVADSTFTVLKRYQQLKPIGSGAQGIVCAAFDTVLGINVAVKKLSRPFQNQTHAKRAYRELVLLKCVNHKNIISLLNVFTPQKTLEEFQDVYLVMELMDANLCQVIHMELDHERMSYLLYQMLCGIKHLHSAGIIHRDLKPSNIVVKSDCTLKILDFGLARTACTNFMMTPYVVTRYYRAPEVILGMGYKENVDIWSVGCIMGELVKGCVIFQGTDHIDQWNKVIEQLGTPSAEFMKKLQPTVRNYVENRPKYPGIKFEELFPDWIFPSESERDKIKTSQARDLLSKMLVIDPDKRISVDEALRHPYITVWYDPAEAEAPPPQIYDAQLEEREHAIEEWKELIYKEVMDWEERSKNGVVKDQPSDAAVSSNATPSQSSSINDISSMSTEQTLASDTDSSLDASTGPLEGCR

[8] = target: Casein kinase II subunit alpha (Homo sapiens, UniProt P68400); assay: Inhibition of human CK2
Chain of Casein kinase II subunit alpha (P68400 whole entry): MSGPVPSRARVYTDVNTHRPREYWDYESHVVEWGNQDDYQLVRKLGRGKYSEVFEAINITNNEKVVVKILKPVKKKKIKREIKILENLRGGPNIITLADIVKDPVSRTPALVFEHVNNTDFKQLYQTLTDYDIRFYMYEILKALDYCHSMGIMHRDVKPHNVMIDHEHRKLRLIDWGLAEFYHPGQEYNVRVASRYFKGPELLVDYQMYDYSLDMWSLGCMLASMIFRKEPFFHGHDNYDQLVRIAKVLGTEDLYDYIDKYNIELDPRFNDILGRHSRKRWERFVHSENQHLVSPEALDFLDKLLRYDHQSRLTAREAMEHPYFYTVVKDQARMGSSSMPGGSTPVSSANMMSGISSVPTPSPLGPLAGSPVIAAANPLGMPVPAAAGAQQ

Chain of Ribosomal protein S6 kinase alpha-3 (P51812 whole entry): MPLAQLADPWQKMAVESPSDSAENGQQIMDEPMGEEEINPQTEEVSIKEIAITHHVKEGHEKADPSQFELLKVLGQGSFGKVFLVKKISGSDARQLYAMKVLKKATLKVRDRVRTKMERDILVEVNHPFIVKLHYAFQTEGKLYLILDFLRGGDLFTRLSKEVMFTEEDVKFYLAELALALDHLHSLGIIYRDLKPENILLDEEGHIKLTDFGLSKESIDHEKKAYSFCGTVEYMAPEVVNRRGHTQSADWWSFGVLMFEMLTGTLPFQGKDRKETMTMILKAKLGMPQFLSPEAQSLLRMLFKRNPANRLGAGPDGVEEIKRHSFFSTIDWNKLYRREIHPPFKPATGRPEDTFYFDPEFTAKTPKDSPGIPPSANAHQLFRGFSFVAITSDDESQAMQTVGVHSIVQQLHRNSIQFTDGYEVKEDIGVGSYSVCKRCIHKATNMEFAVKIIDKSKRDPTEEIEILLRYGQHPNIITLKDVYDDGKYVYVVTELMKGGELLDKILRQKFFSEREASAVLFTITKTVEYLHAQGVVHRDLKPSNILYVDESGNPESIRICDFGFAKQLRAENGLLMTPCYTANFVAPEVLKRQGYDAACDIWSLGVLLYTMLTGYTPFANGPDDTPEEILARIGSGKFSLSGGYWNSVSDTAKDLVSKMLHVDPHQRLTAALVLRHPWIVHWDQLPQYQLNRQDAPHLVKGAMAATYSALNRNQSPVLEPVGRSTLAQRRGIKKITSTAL

Structure (SMILES)	IC50 [1]	IC50 [2]	IC50 [3]	IC50 [4]	IC50 [5]	IC50 [6]	IC50 [7]	IC50 [8]
CC1CCC(c2nc(-c3ccc(F)cc3)c(-c3ccncc3)[nH]2)CC1 (stereo unspecified)	39 µM	<= 0.024 uM	400 nM	1300 nM	2 µM	175 µM	166 µM	> 100 µM
CNc1nccc(-c2nc(C3CCNCC3)[nH]c2-c2cccc(C(F)(F)F)c2)n1	76 µM	<= 0.028 uM	1400 nM	1100 nM	260 µM	385 µM	404 µM	> 100 µM
